A short description of this series: pKa of the azo dye. It is filed as physicochemical. Particulars: assumes blue color by proton dissociation. The text has this:
The liquid hair dye composition of the present invention contain, as component (A), an azo dye represented by Formula (A-2) below (HC Blue 18). The pKa of the azo dye (A-2) is 6.0, and assumes blue color by proton dissociation.

Our source for the pKa values is US11077042B2, “Liquid hair dye composition” (KAO CORPORATION, priority 2017, dated 2021).

Each structure is given as a SMILES string.

The term pKa denotes the negative logarithm of the acid dissociation constant. Regarding `NS(=O)(=O)c1ccc2nsc(N=Nc3ccc(O)c(Cl)c3)c2c1` [Example A-2, HC Blue 18], the pKa came out at 6.
